Source: patent publication US20210038753A1, “BIOLOGICAL STERILIZATION INDICATOR WITH STERILANT RESISTANCE MODULATOR” (3M INNOVATIVE PROPERTIES COMPANY, priority 2014, published 2021)

Experiments:
[1] = tested on: Geobacillus stearothermophilus spores; experiment: Resistance of self-contained biological indicators to hydrogen peroxide sterilization, glucosidase enzyme activity fluorescence readout (ENZ+); assay type: cell-based
Method: (§1) PET film (.09 mm thick) was coated with colloidal silica as described in International Publication No. WO2014/189716, which is incorporated herein by reference in its entirety. […] Separate aqueous spore coating solutions were prepared as described in Example 1 with the amino acids shown in table 4 present in the coating solutions. Two microliter aliquots (containing at least 10^6 spores) of the respective spore coating solutions were deposited onto the silica-coated PET film, forming a series of spaced-apart spots on the film. The spore coated films were dried in a 60° C. incubator for 12 minutes. Circular discs (hereinafter, “coated carriers”) of the PET film, each disc including one of the dried spots, were punched out and were used to assemble self-contained biological indicators (BI) similar to that shown in FIG. 1 of International Publication No. WO2014/189716. The coated carriers described above were placed into the “spore carrier 135” shown in FIG. 1 of International Publication No. WO2014/189716. Each self-contained BI comprised a polycarbonate outer container, a breaker, a cap, and a cap filter. Disposed inside the outer container were a coated carrier along with an ampoule media containing the nutrient medium from 3M ATTEST 1292 Rapid Readout Biological Indicators plus 5g/L methionine (as described in Example 1).
(§2) The self-contained biological indicators with different concentrations of additives (Table 4) were exposed to hydrogen peroxide sterilization in STERRAD NX sterilizer. The sterilization processes were run by manually injecting 1.0 ml of 59% hydrogen peroxide per load, unless specified otherwise. The exposure time was varied to determine the resistance profile of self-contained BIs with different additive formulations. The BIs were activated by pressing down the cap to break the media ampoule. The activated BIs were placed in a bench-top fluorimeter (3M Company, St. Paul, Minn.) to detect fluorescence.
(§3) A self-contained BI that is not completely inactivated (i.e., not all of the spores are killed by the sterilization process) will resume cellular functions upon activation of the BI. The production of glucosidase enzyme by surviving spores is an indication that at least one of the spores have not been inactivated (killed) by the sterilization process. The glucosidase enzyme cleaves the 4-methylumbelliferyl-glucoside (MUG) releasing the fluorescent methyl umbelliferone, which is detected using a bench-top fluorimeter. Growth and proliferation of spores in the self-contained biological indicator can also be detected by a pH change, which may be detected by a color change of the pH indicator in the growth medium.
(§4) Self-contained biological indicators were prepared (with various additives listed in table 4) as described above in this Example. For each additive tested, a lower range and a higher range was used as a preliminary screen to identify additives modulated the resistance of the spores to the sterilant. Five self-contained BIs representing each condition were exposed to hydrogen peroxide sterilization in STERRAD NX sterilizer. The sterilization processes used a constant injection volume (1.0 ml of 59% hydrogen peroxide) and various times (e.g., 20 seconds to 7 minutes) of exposure to the hydrogen peroxide. The self-contained BIs were activated after exposure to the sterilization process and were monitored for fluorescence using a bench-top fluorimeter) and pH based color change (visually). […]
(§5) Self-contained biological indicators (with various additives listed in table 5) were prepared as described in Example 2. The self-contained biological indicators were exposed to hydrogen peroxide in a STERRAD NX sterilizer as described in Example 2. The self-contained BIs were activated after exposure to the sterilization process and were monitored for fluorescence using a bench-top fluorimeter and pH based color change (visually).

[2] = tested on: Geobacillus stearothermophilus spores; experiment: Resistance of self-contained biological indicators to hydrogen peroxide sterilization, growth readout by pH colour change (GRO+); assay type: cell-based; conditions: Example 2 / Comparative Example 1 (Table 4), fluorescence and growth readouts
Method: as §1, §2, §3, §4, §5

N[C@@H](Cc1c[nH]cn1)C(=O)O [L-histidine]
percentage of self-contained biological indicators positive for glucosidase enzyme activity (ENZ+) ([1]; Table 4, modulator 0.01 weight percent in spore coating solution, H2O2 exposure 30 sec.): 100%
percentage of self-contained biological indicators positive for glucosidase enzyme activity (ENZ+) ([1]; Table 4, modulator 0.01 weight percent in spore coating solution, H2O2 exposure 60 sec.): 80%
percentage of self-contained biological indicators positive for glucosidase enzyme activity (ENZ+) ([1]; Table 4, modulator 0.01 weight percent in spore coating solution, H2O2 exposure 90 sec.): 0%
percentage of self-contained biological indicators positive for glucosidase enzyme activity (ENZ+) ([1]; Table 4, modulator 0.01 weight percent in spore coating solution, H2O2 exposure 3 min.): 0%
percentage of self-contained biological indicators positive for glucosidase enzyme activity (ENZ+) ([1]; Table 4, modulator 0.01 weight percent in spore coating solution, H2O2 exposure 7 min.): 0%
percentage of self-contained biological indicators positive for glucosidase enzyme activity (ENZ+) ([1]; Table 4, modulator 0.1 weight percent in spore coating solution, H2O2 exposure 30 sec.): 100%
percentage of self-contained biological indicators positive for glucosidase enzyme activity (ENZ+) ([1]; Table 4, modulator 0.1 weight percent in spore coating solution, H2O2 exposure 60 sec.): 10%
percentage of self-contained biological indicators positive for glucosidase enzyme activity (ENZ+) ([1]; Table 4, modulator 0.1 weight percent in spore coating solution, H2O2 exposure 90 sec.): 0%
percentage of self-contained biological indicators positive for glucosidase enzyme activity (ENZ+) ([1]; Table 4, modulator 0.1 weight percent in spore coating solution, H2O2 exposure 3 min.): 0%
percentage of self-contained biological indicators positive for glucosidase enzyme activity (ENZ+) ([1]; Table 4, modulator 0.1 weight percent in spore coating solution, H2O2 exposure 7 min.): 0%
percentage of self-contained biological indicators positive for glucosidase enzyme activity (ENZ+) ([1]; Table 5, modulator 0.05 weight percent in spore coating solution, H2O2 exposure 20 sec.): 100%
percentage of self-contained biological indicators positive for glucosidase enzyme activity (ENZ+) ([1]; Table 5, modulator 0.05 weight percent in spore coating solution, H2O2 exposure 30 sec.): 100%
percentage of self-contained biological indicators positive for glucosidase enzyme activity (ENZ+) ([1]; Table 5, modulator 0.05 weight percent in spore coating solution, H2O2 exposure 60 sec.): 0%
percentage of self-contained biological indicators positive for glucosidase enzyme activity (ENZ+) ([1]; Table 5, modulator 0.05 weight percent in spore coating solution, H2O2 exposure 90 sec.): 0%
percentage of self-contained biological indicators positive for glucosidase enzyme activity (ENZ+) ([1]; Table 5, modulator 0.05 weight percent in spore coating solution, H2O2 exposure 3 min.): 0%
percentage of self-contained biological indicators positive for glucosidase enzyme activity (ENZ+) ([1]; Table 5, modulator 0.05 weight percent in spore coating solution, H2O2 exposure 7 min.): 0%
percentage of self-contained biological indicators positive for glucosidase enzyme activity (ENZ+) ([1]; Table 5, modulator 0.1 weight percent in spore coating solution, H2O2 exposure 20 sec.): 100%
percentage of self-contained biological indicators positive for glucosidase enzyme activity (ENZ+) ([1]; Table 5, modulator 0.1 weight percent in spore coating solution, H2O2 exposure 30 sec.): 100%
percentage of self-contained biological indicators positive for glucosidase enzyme activity (ENZ+) ([1]; Table 5, modulator 0.1 weight percent in spore coating solution, H2O2 exposure 60 sec.): 67%
percentage of self-contained biological indicators positive for glucosidase enzyme activity (ENZ+) ([1]; Table 5, modulator 0.1 weight percent in spore coating solution, H2O2 exposure 90 sec.): 67%
percentage of self-contained biological indicators positive for glucosidase enzyme activity (ENZ+) ([1]; Table 5, modulator 0.1 weight percent in spore coating solution, H2O2 exposure 3 min.): 0%
percentage of self-contained biological indicators positive for glucosidase enzyme activity (ENZ+) ([1]; Table 5, modulator 0.1 weight percent in spore coating solution, H2O2 exposure 7 min.): 0%
percentage of self-contained biological indicators positive for glucosidase enzyme activity (ENZ+) ([1]; Table 5, modulator 0.2 weight percent in spore coating solution, H2O2 exposure 20 sec.): 100%
percentage of self-contained biological indicators positive for glucosidase enzyme activity (ENZ+) ([1]; Table 5, modulator 0.2 weight percent in spore coating solution, H2O2 exposure 30 sec.): 100%
percentage of self-contained biological indicators positive for glucosidase enzyme activity (ENZ+) ([1]; Table 5, modulator 0.2 weight percent in spore coating solution, H2O2 exposure 60 sec.): 33%
percentage of self-contained biological indicators positive for glucosidase enzyme activity (ENZ+) ([1]; Table 5, modulator 0.2 weight percent in spore coating solution, H2O2 exposure 90 sec.): 67%
percentage of self-contained biological indicators positive for glucosidase enzyme activity (ENZ+) ([1]; Table 5, modulator 0.2 weight percent in spore coating solution, H2O2 exposure 3 min.): 0%
percentage of self-contained biological indicators positive for glucosidase enzyme activity (ENZ+) ([1]; Table 5, modulator 0.2 weight percent in spore coating solution, H2O2 exposure 7 min.): 0%
percentage of self-contained biological indicators positive for glucosidase enzyme activity (ENZ+) ([1]; Table 5, modulator 0.4 weight percent in spore coating solution, H2O2 exposure 20 sec.): 100%
percentage of self-contained biological indicators positive for glucosidase enzyme activity (ENZ+) ([1]; Table 5, modulator 0.4 weight percent in spore coating solution, H2O2 exposure 30 sec.): 100%
percentage of self-contained biological indicators positive for glucosidase enzyme activity (ENZ+) ([1]; Table 5, modulator 0.4 weight percent in spore coating solution, H2O2 exposure 60 sec.): 0%
percentage of self-contained biological indicators positive for glucosidase enzyme activity (ENZ+) ([1]; Table 5, modulator 0.4 weight percent in spore coating solution, H2O2 exposure 90 sec.): 33%
percentage of self-contained biological indicators positive for glucosidase enzyme activity (ENZ+) ([1]; Table 5, modulator 0.4 weight percent in spore coating solution, H2O2 exposure 3 min.): 0%
percentage of self-contained biological indicators positive for glucosidase enzyme activity (ENZ+) ([1]; Table 5, modulator 0.4 weight percent in spore coating solution, H2O2 exposure 7 min.): 0%
percentage of self-contained biological indicators positive for glucosidase enzyme activity (ENZ+) ([1]; Table 5, modulator 0.8 weight percent in spore coating solution, H2O2 exposure 20 sec.): 100%
percentage of self-contained biological indicators positive for glucosidase enzyme activity (ENZ+) ([1]; Table 5, modulator 0.8 weight percent in spore coating solution, H2O2 exposure 30 sec.): 100%
percentage of self-contained biological indicators positive for glucosidase enzyme activity (ENZ+) ([1]; Table 5, modulator 0.8 weight percent in spore coating solution, H2O2 exposure 60 sec.): 0%
percentage of self-contained biological indicators positive for glucosidase enzyme activity (ENZ+) ([1]; Table 5, modulator 0.8 weight percent in spore coating solution, H2O2 exposure 90 sec.): 67%
percentage of self-contained biological indicators positive for glucosidase enzyme activity (ENZ+) ([1]; Table 5, modulator 0.8 weight percent in spore coating solution, H2O2 exposure 3 min.): 0%
percentage of self-contained biological indicators positive for glucosidase enzyme activity (ENZ+) ([1]; Table 5, modulator 0.8 weight percent in spore coating solution, H2O2 exposure 7 min.): 0%
sensitivity of the biological indicator to the sterilization process relative to the control with no additives [2]: increased sensitivity (decreased resistance)
